Assay results reported in US6613719B1, “3-(4,5-dihydroisoxazol-3-yl)-substituted benzoylpyrazoles” (BASF Aktiengesellschaft, priority 1999, dated 2003).

melting point: 76 to 78 °C
Structure (SMILES): Cc1c(C(=O)c2cnn(C)c2O)ccc(S(C)(=O)=O)c1C1=NOC(CCl)C1 (stereo not shown) [Compound 2.1, 4-[2-Methyl-3-(5-chloromethyl-4,5-dihydroisoxazol-3-yl)-4-methyl-sulfonylbenzoyl]-5-hydroxy-1-methyl-1H-pyrazole]
